Measured values from PubChem BioAssay (NCI).
Values joined by “and” are separate entries in the source; they are usually repeats but may differ in a detail not shown here. Identical values can stand only once.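 Compound exposure: 48 hours, 5 concentrations, 96-well plates. GI50 is the concentration that inhibits growth by half. TGI is the concentration that stops growth completely.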 Non-standard residues stand in square brackets, D forms with d. Residues, ends and D or L forms follow the SMILES beside them. ξ: configuration not given here. Pen = CC(C)(S)[C@H](N)C(=O)O; ξL = CC(C)CC(N)C(=O)O

What was measured:
Assay in all cases: NCI tumour cell line growth inhibition, 48 h
786-0 renal = test system: 786-0 renal
A498 renal = test system: A498 renal
ACHN renal = test system: ACHN renal
BT-549 breast = test system: BT-549 breast
DU-145 prostate = test system: DU-145 prostate
HS 578T breast = test system: HS 578T breast
M14 melanoma = test system: M14 melanoma
MDA-MB-231 breast = test system: MDA-MB-231 breast
MDA-MB-435 = test system: MDA-MB-435
MDA-N = test system: MDA-N
NCI-H226 lung = test system: NCI-H226 lung
P388/ADR leukemia = test system: P388/ADR leukemia
PC-3 prostate = test system: PC-3 prostate
SR leukemia = test system: SR leukemia
T-47D breast = test system: T-47D breast
TK-10 renal = test system: TK-10 renal
A549 NSCLC = test system: A549 NSCLC
CAKI-1 renal = test system: CAKI-1 renal
CCRF-CEM leukemia = test system: CCRF-CEM leukemia
COLO 205 colon = test system: COLO 205 colon
DLD-1 colon = test system: DLD-1 colon
DMS 114 small cell lung = test system: DMS 114 small cell lung
DMS 273 small cell lung = test system: DMS 273 small cell lung
EKVX NSCLC = test system: EKVX NSCLC
HCC-2998 colon = test system: HCC-2998 colon
HCT-116 colon = test system: HCT-116 colon
HCT-15 colon = test system: HCT-15 colon
HL-60(TB) leukemia = test system: HL-60(TB) leukemia
HOP-18 NSCLC = test system: HOP-18 NSCLC
HOP-62 NSCLC = test system: HOP-62 NSCLC
HOP-92 NSCLC = test system: HOP-92 NSCLC
HT29 colon = test system: HT29 colon
IGROV1 ovarian = test system: IGROV1 ovarian
K-562 leukemia = test system: K-562 leukemia
KM12 colon = test system: KM12 colon
KM20L2 colon = test system: KM20L2 colon
LOX IMVI melanoma = test system: LOX IMVI melanoma
M19-MEL melanoma = test system: M19-MEL melanoma
MALME-3M melanoma = test system: MALME-3M melanoma
MCF7 breast = test system: MCF7 breast
MOLT-4 leukemia = test system: MOLT-4 leukemia
NCI-H23 lung = test system: NCI-H23 lung
NCI-H522 lung = test system: NCI-H522 lung
NCI/ADR-RES ovarian = test system: NCI/ADR-RES ovarian
OVCAR-3 ovarian = test system: OVCAR-3 ovarian
OVCAR-4 ovarian = test system: OVCAR-4 ovarian
OVCAR-5 ovarian = test system: OVCAR-5 ovarian
OVCAR-8 ovarian = test system: OVCAR-8 ovarian
P388 leukemia = test system: P388 leukemia
RPMI-8226 leukemia = test system: RPMI-8226 leukemia
RXF 393 renal = test system: RXF 393 renal
SF-268 CNS = test system: SF-268 CNS
SF-295 CNS = test system: SF-295 CNS
SF-539 CNS = test system: SF-539 CNS
SK-MEL-2 melanoma = test system: SK-MEL-2 melanoma
SK-MEL-28 melanoma = test system: SK-MEL-28 melanoma
SK-MEL-5 melanoma = test system: SK-MEL-5 melanoma
SK-OV-3 ovarian = test system: SK-OV-3 ovarian
SN12C renal = test system: SN12C renal
SN12K1 renal = test system: SN12K1 renal
SNB-19 CNS = test system: SNB-19 CNS
SNB-75 CNS = test system: SNB-75 CNS
SNB-78 CNS = test system: SNB-78 CNS
SW-620 colon = test system: SW-620 colon
U251 CNS = test system: U251 CNS
UACC-257 melanoma = test system: UACC-257 melanoma
UACC-62 melanoma = test system: UACC-62 melanoma
UO-31 renal = test system: UO-31 renal
XF 498 CNS = test system: XF 498 CNS

In the case of COc1cccc2c1C(=O)c1c(O)c3c(c(O)c1C2=O)C[C@@](O)(C(=O)CO)C[C@@H]3OC1CC(N2CCOCC2)C(O)C(C)O1 (some centres undefined), the GI50 (786-0 renal) is reported as under 13.1 nM, the TGI (786-0 renal) is reported as 611 nM and the TGI (A498 renal) is reported as 23.2 nM and 48.6 nM and 6.51 nM. The GI50 (ACHN renal) was 8.41 nM, the TGI (ACHN renal) was 0.0736 µM and the TGI (BT-549 breast) was 392 nM. For the same compound, the TGI (DU-145 prostate) was 3.37 µM, the TGI (HS 578T breast) was 228 nM and the TGI (M14 melanoma) was 0.149 µM. For the same compound, the TGI (MDA-MB-231 breast) was 0.433 µM, the TGI (MDA-MB-435) was 195 nM and the TGI (MDA-N) was 175 nM. For the same compound, the TGI (NCI-H226 lung) was 8.66 nM and 28.3 nM and 4.55 nM, the GI50 (P388/ADR leukemia) was 2.5 nM and the TGI (PC-3 prostate) was 0.241 µM. It also gave a GI50 (SR leukemia) of 5.53 nM, a TGI (T-47D breast) of 1.06 µM and a TGI (TK-10 renal) of 2070 nM.

Compound COC1C(OC(=O)/C=C/C=C/C=C/C=C/C(=O)O)CCC2(CO2)C1C1(C)OC1CC=C(C)C (centres undefined) has a GI50 (786-0 renal) of 310 nM, a TGI (786-0 renal) of over 100000 nM and a TGI (A498 renal) of over 100000 nM. The GI50 (A549 NSCLC) was 308 nM, the TGI (A549 NSCLC) was over 100 µM and the GI50 (ACHN renal) was 373 nM. For the same compound, the TGI (ACHN renal) was 49 µM, the GI50 (BT-549 breast) was 268 nM and the TGI (BT-549 breast) was over 100000 nM. For the same compound, the GI50 (CAKI-1 renal) was 414 nM, the TGI (CAKI-1 renal) was over 100 µM and the GI50 (CCRF-CEM leukemia) was 386 nM. The TGI (CCRF-CEM leukemia) was 78.1 µM, the GI50 (COLO 205 colon) was 157 nM and the TGI (COLO 205 colon) was 26.1 µM. The TGI (DLD-1 colon) was over 100 µM, the TGI (DMS 114 small cell lung) was over 100 µM and the TGI (DMS 273 small cell lung) was over 100 µM. The GI50 (DU-145 prostate) was 651 nM, the TGI (DU-145 prostate) was over 100 µM and the GI50 (EKVX NSCLC) was 436 nM. It also gave a TGI (EKVX NSCLC) of over 82.9 µM, a GI50 (HCC-2998 colon) of 231 nM and a TGI (HCC-2998 colon) of over 71.4 µM. For the same compound, the GI50 (HCT-116 colon) was 120 nM, the TGI (HCT-116 colon) was over 100 µM and the GI50 (HCT-15 colon) was 296 nM. It also gave a TGI (HCT-15 colon) of over 93.9 µM, a GI50 (HL-60(TB) leukemia) of 187 nM and a TGI (HL-60(TB) leukemia) of 70.6 µM. It also gave a TGI (HOP-18 NSCLC) of 94.8 µM, a GI50 (HOP-62 NSCLC) of 198 nM and a TGI (HOP-62 NSCLC) of over 100 µM. For the same compound, the GI50 (HOP-92 NSCLC) was 438 nM, the TGI (HOP-92 NSCLC) was over 76.1 µM and the TGI (HS 578T breast) was over 100000 nM. It also gave a GI50 (HT29 colon) of 181 nM, a TGI (IGROV1 ovarian) of over 95.1 µM and a TGI (K-562 leukemia) of over 89.6 µM. It also gave a GI50 (KM12 colon) of 471 nM, a TGI (KM12 colon) of 29.4 µM and a TGI (KM20L2 colon) of over 100 µM. For the same compound, the GI50 (LOX IMVI melanoma) was 183 nM, the TGI (M14 melanoma) was 69.8 µM and the TGI (M19-MEL melanoma) was over 100 µM. For the same compound, the GI50 (MALME-3M melanoma) was 450 nM, the TGI (MALME-3M melanoma) was over 75.3 µM and the GI50 (MCF7 breast) was 172 nM. The TGI (MCF7 breast) was over 100 µM, the GI50 (MDA-MB-231 breast) was 525 nM and the TGI (MDA-MB-231 breast) was 80.5 µM. For the same compound, the GI50 (MDA-MB-435) was 105 nM, the GI50 (MDA-N) was 246 nM and the TGI (MDA-N) was over 100000 nM. It also gave a GI50 (MOLT-4 leukemia) of 347 nM, a TGI (MOLT-4 leukemia) of 78.7 µM and a TGI (NCI-H226 lung) of over 100000 nM. The GI50 (NCI-H23 lung) was 193 nM, the TGI (NCI-H23 lung) was over 83.7 µM and the GI50 (NCI-H522 lung) was 137 nM. The TGI (NCI/ADR-RES ovarian) was 97.7 µM, the GI50 (OVCAR-3 ovarian) was 314 nM and the TGI (OVCAR-3 ovarian) was over 80.9 µM. The GI50 (OVCAR-4 ovarian) was 184 nM, the TGI (OVCAR-4 ovarian) was over 87 µM and the TGI (OVCAR-5 ovarian) was over 100 µM. It also gave a GI50 (OVCAR-8 ovarian) of 301 nM, a TGI (OVCAR-8 ovarian) of over 92 µM and a TGI (P388 leukemia) of 29.1 µM. For the same compound, the TGI (P388/ADR leukemia) was over 49.2 µM, the TGI (PC-3 prostate) was 73.1 µM and the GI50 (RPMI-8226 leukemia) was 165 nM. It also gave a TGI (RPMI-8226 leukemia) of 78.6 µM, a GI50 (RXF 393 renal) of 265 nM and a GI50 (SF-268 CNS) of 388 nM. It also gave a TGI (SF-268 CNS) of over 100 µM, a GI50 (SF-295 CNS) of 193 nM and a TGI (SF-295 CNS) of over 96.8 µM. It also gave a GI50 (SF-539 CNS) of 347 nM, a TGI (SF-539 CNS) of over 100 µM and a TGI (SK-MEL-2 melanoma) of over 85.3 µM. It also gave a GI50 (SK-MEL-28 melanoma) of 442 nM, a TGI (SK-MEL-28 melanoma) of over 100 µM and a GI50 (SK-MEL-5 melanoma) of 271 nM. The TGI (SK-MEL-5 melanoma) was over 64.9 µM, the TGI (SK-OV-3 ovarian) was over 84.5 µM and the GI50 (SN12C renal) was 225 nM. For the same compound, the TGI (SN12K1 renal) was over 100 µM, the GI50 (SNB-19 CNS) was 277 nM and the TGI (SNB-19 CNS) was over 100 µM. For the same compound, the GI50 (SNB-75 CNS) was 287 nM, the TGI (SNB-75 CNS) was over 86.4 µM and the TGI (SNB-78 CNS) was over 100 µM. It also gave a GI50 (SR leukemia) of 220 nM, a TGI (SR leukemia) of 67.6 µM and a GI50 (SW-620 colon) of 272 nM. For the same compound, the TGI (SW-620 colon) was over 100 µM, the GI50 (T-47D breast) was 326 nM and the TGI (T-47D breast) was 70.2 µM. The TGI (TK-10 renal) was over 100000 nM, the GI50 (U251 CNS) was 32 nM and the GI50 (UACC-257 melanoma) was 489 nM. The TGI (UACC-257 melanoma) was over 84.2 µM, the GI50 (UACC-62 melanoma) was 101 nM and the TGI (UO-31 renal) was over 82.2 µM. The TGI (XF 498 CNS) was over 100 µM.

For CSCC[C@H](NC(=O)C(CC(C)C)NC(=O)[C@H](Cc1c[nH]cn1)NC(=O)CNC(=O)[C@@H](NC(=O)[C@@H](C)NC(=O)[C@H](Cc1c[nH]c2ccccc12)NC(=O)[C@H](CCC(N)=O)NC(=O)[C@@H](N)CC(N)=O)C(C)(C)SC)C(N)=O (some centres undefined) (H-NQW[dA][Pen](Me)GH[ξL]M-NH2), the TGI (DLD-1 colon) was over 100 µM, the TGI (DMS 114 small cell lung) was over 100 µM and the TGI (DMS 273 small cell lung) was over 100 µM. It also gave a TGI (HOP-18 NSCLC) of over 100 µM, a TGI (HOP-92 NSCLC) of over 100 µM and a TGI (KM20L2 colon) of over 100 µM. The TGI (M19-MEL melanoma) was over 100 µM, the TGI (NCI-H226 lung) was over 100000 nM and the TGI (NCI-H23 lung) was over 100 µM. For the same compound, the TGI (P388 leukemia) was over 100 µM, the TGI (P388/ADR leukemia) was over 100 µM and the TGI (SN12K1 renal) was over 100 µM. It also gave a TGI (SNB-78 CNS) of over 100 µM, a TGI (UACC-257 melanoma) of over 100 µM and a TGI (XF 498 CNS) of over 100 µM.
